Holding throughout (type): cell-based
Assay [1] concerns the target T1, mouse TGR5 receptor (Mus musculus, UniProt Q80SS6).
T1 construct: host or cells: HEK293-EBNA (293 c18, ATCC CRL10852)
T1 sequence (Q80SS6 1-329): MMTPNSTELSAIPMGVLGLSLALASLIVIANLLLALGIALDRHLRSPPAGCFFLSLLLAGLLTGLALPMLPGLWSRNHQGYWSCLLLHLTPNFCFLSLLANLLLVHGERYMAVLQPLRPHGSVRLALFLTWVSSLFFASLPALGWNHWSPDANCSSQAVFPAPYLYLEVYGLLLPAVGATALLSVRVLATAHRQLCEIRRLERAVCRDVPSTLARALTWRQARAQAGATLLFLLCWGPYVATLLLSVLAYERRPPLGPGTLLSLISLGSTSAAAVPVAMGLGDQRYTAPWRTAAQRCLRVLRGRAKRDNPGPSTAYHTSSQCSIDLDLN
The assay is described as follows: Mouse TGR5 luminescent cAMP production assay (HEK293-EBNA cells, DiscoveRx cAMP XS+ kit). As to conditions: HEK293-EBNA cells overexpressing mouse TGR5, luminescent cAMP assay; read-out: Mouse TGR5 Lum. cAMP Activity (EC50). How it is done:
Mouse TGR5 cAMP Production Assay
Compounds of the present invention were evaluated for their ability to induce cAMP production in HEK-EBNA cells overexpressing the mouse TGR5 receptor. Human embryonic kidney cells (HEK293-EBNA) stably expressing mouse TGR5 receptor were established using the following procedure. Specifically, a commercially obtained gene encoding mouse TGR5 (accession number BC116914) from Thermo Scientific (Waltham, Mass.) was cloned into an episomal expression vector. The resulting expression plasmid was then transfected into 293 c18 (ATCC® CRL10852™) cells, which express the Epstein-Barr virus nuclear antigen EBNA1 and can support the replication of episomal vectors. Selection for the plasmid was maintained with Hygromycin B. Cells were cultured and maintained in DMEM (Sigma; cat #6429) supplemented with 10% Fetal Bovine Serum, 1% penicillin/streptomycin, 2 mM L-alanine L-glutamine (GlutaMax), and 250 μg/mL Hygromycin.
We developed two cAMP production assays.
(i) Luminescent cAMP Production Assay
In this first cAMP production assay, the cAMP production was measured using DiscoveRx's cAMP XS+ kit following the manufacturer's recommended protocol. Briefly, HEK293-EBNA cells stably overexpressing mouse TGR5 were harvested using non-enzymatic cell dissociation buffer (Sigma-Aldrich, St. Louis, Mo.), spun down, then resuspended in serum-free DMEM with 500 μM IBMX at a density of 1.25×10^6 cells/mL. 500 μL of cAMP antibody solution was added to 500 μL of cell suspension and incubated at room temperature for 20 min.
Test compounds were serially diluted (half-log dilutions) in DMSO and then further diluted 1:50 in PBS, 10 mM HEPES buffer. 2 μL of serially diluted compound was added to a 384-well low volume plate (Greiner cat #784075) and centrifuged briefly. 2 μl of the cell/cAMP antibody mixture was then added to each compound-containing well and allowed to incubate at room temperature for one (1) hour. Following incubation, the XS+ kits' ED/Lysis/CL Substrate Working Solution was prepared following the manufacturer's recommended protocol and 4 μL was added to each well of the plate. The plate was then incubated for one (1) hour at room temperature. Following incubation, 4 μL of (Enzyme Acceptor) EA reagent was added to the plate and allowed to incubate overnight at room temperature. Luminescent signal was then detected using the Viewlux instrument (PerkinElmer, Waltham, Mass.).
In Table 52, EC50 values for both human and mouse cells were determined according to the TGR5 cAMP assays described above. […]

Assay [2] addresses T2, human TGR5 receptor (Homo sapiens, UniProt Q8TDU6).
T2 construct: host or cells: CHO-K1 (hTGR5-CHO)
T2 sequence (Q8TDU6 1-330): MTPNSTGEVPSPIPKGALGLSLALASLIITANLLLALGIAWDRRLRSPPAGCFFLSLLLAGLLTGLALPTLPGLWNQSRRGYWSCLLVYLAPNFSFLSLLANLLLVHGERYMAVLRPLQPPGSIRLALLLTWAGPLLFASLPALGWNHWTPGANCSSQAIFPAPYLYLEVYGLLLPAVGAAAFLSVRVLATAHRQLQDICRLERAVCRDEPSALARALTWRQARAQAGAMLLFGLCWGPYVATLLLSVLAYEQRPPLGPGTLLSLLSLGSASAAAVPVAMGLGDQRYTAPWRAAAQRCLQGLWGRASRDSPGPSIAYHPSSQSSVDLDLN
Nature of the assay: Human TGR5 cAMP production assay (hTGR5-CHO cells, DiscoveRx cAMP XS+ kit). As to conditions: luminescent cAMP assay, read-out: Human TGR5 Lum. cAMP Activity (EC50). The gist of the method: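 CHO-K1 cells stably expressing hTGR5, in PBS with IBMX and cAMP antibody, treated with half-log compound dilutions for 1 h at room temperature. cAMP measured by enzyme-fragment complementation luminescence after overnight detection; EC50 values reported.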
For orientation: cAMP levels reflect the balance of adenylyl cyclase and phosphodiesterase activity.

For assay [3], the system named is Mouse STC-1 cells. Nature of the assay: STC-1 GLP-1 assay (GLP-1 secretion). As to conditions: Mouse STC-1 cells, GLP-1 secretion, 2 h; read-out: Mouse STC-1 HTRF GLP-1 Activity (EC50). How it is done:
Compounds of the present invention were evaluated for their ability to induce GLP-1 production in mouse intestinal neuroendocrine tumor cells.
Mouse STC-1 cells were cultured and maintained in high glucose DMEM (Sigma #5796) supplemented with 15% horse serum, 5% Fetal Bovine Serum (FBS), 1%° penicillin/streptomycin, and 2 mM L-alanine L-glutamine (GlutaMax). Two days prior to analysis of GLP-1 secretion cells were harvested using Accutase (Sigma), spun down then resuspended in high glucose DMEM media containing 2 mM L-alanine L-glutamine (GlutaMax), 10% charcoal-dextran stripped FBS, and 50 μg/mL Gentamicin, at a density of 100,000° cells/mL. 100 μL of cell suspension was added to each well of a 96-well Poly-D-Lysine coated culture plate (Sigma; cat #2382493) and was incubated at 37° C. with 5% CO2.
Compounds were initially diluted in 100% DMSO (12-point serial dilution by half logs) in a 96-well plate and then were further diluted 1:500 in Hanks' Balanced Salt Solution (HBSS) containing protease inhibitor cocktail, DPP-IV inhibitor, and 0.1% fatty acid free bovine serum albumin. On the day of the experiment cells were washed once with HBSS. After wash, 100 μL of test compound was added to each well. The plate was incubated at 37° C. with 5% CO2 for 2° h. Supernatants were collected and GLP-1 secretion was measured using the Cisbio™ Active GLP-1 HTRF Assay Kit (CisBio). Briefly, Anti-GLP-1-d2 conjugate and Anti-GLP-1 Terbium Cryptate conjugate stock solutions were prepared as per kit instructions. The two solutions were pre-mixed and 10 μL were transferred to a 384-well low volume plate (Greiner; cat #784075). 10 μL of collected supernatants were added to wells already containing the conjugate solution. The plate was covered and incubated at room temperature overnight. The plate was read on an Envision™ plate reader (PerkinElmer).
In Table 53, EC50 values were obtained from the STC-1 GLP-1 production assay for compounds of the present invention are summarized.
(In TR-FRET formats the signal depends on donor and acceptor labels being close together.)

Assay [4] concerns the target T1, mouse TGR5 receptor. Nature of the assay: Mouse TGR5 HTRF cAMP production assay (HEK293-EBNA cells, Cisbio cAMP HiRange kit). As to conditions: HEK293-EBNA cells overexpressing mouse TGR5, HTRF cAMP assay. The method, boiled down: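 HEK293-EBNA cells stably expressing mouse TGR5 (episomal vector) were suspended in serum-free DMEM with 500 μM IBMX and exposed to 12-point half-log compound dilutions for 1 h at room temperature. cAMP was detected by HTRF (d2-cAMP/anti-cAMP cryptate, 1 h, room temperature), giving EC50 from duplicates.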

pEC50: −log10 of the molar value.

As to `N#Cc1ccc(CCNC(=O)[C@@H]2CCCN2c2cc(-c3ccncc3F)nc(C(F)(F)F)n2)cc1` [Compound 155, (S)-N-(4-cyanophenethyl)-1-(6-(3-fluoropyridin-4-yl)-2-(trifluoromethyl)pyrimidin-4-yl)pyrrolidine-2-carboxamide], the pEC50 in assay [1] and in assay [2] was 6.00 to 7.00 in each case.
With `N[C@@H](CO)C(=O)N1CCN(c2cc(N3CCC[C@@H](C(=O)NCCc4ccc(C(F)(F)F)cc4)C3)nc(C(F)(F)F)n2)CC1` [Compound 342, (R)-1-(6-(4-((S)-2-amino-3-hydroxypropanoyl)piperazin-1-yl)-2-(trifluoromethyl)pyrimidin-4-yl)-N-(4-(trifluoromethyl)phenethyl)piperidine-3-carboxamide], the pEC50 (usually the negative decadic logarithm of the EC50, by convention in mol/L) in assay [2] is 6.00 to 7.00; in assay [3] it was 6.00 to 7.00; in assay [4] it was over 7.00.
With `COc1cc(C(F)(F)F)ccc1CCNC(=O)[C@@H]1CCN1c1cc(N2CCC(CCO)CC2)nc(C(F)(F)F)n1` [Compound 238, (5)-1-(6-(4-(2-hydroxyethyl)piperidin-1-yl)-2-(trifluoromethyl)pyrimidin-4-yl)-N-(2-methoxy-4-(trifluoromethyl)phenethyl)azetidine-2-carboxamide], the results for the negative-log EC50 (pEC50) in assay [2], in assay [3] and in assay [4] were over 7.00, 6.00 to 7.00 and over 7.00, respectively.
As for `COc1cc(C(F)(F)F)ccc1CCNC(=O)[C@@H]1CCN1c1cc(N2CCC(CCCC(=O)O)CC2)nc(C(F)(F)F)n1` [Compound 240, (S)-4-(1-(6-(2-((2-methoxy-4-(trifluoromethyl)phenethyl)carbamoyl)azetidin-1-yl)-2-(trifluoromethyl)pyrimidin-4-yl)piperidin-4-yl)butanoic acid], the negative-log EC50 (pEC50) in assay [2], in assay [3] and in assay [4] was over 7.00 throughout.
In the case of `N#CCCN1CCN(c2cc(N3CC[C@H]3C(=O)NCCc3ccc(C#N)cc3)nc(C(F)(F)F)n2)CC1` [Compound 229, (S)-1-(6-(4-(2-cyanoethyl)piperazin-1-yl)-2-(trifluoromethyl)pyrimidin-4-yl)-N-(4-cyanophenethyl)azetidine-2-carboxamide], the pEC50 in assay [2] is over 7.00; in assay [3], 6.00 to 7.00; in assay [4], over 7.00.
In the case of `N#Cc1ccc(CCNC(=O)[C@@H]2CCN2c2cc(N3CCC(CCC(=O)NCCS(=O)(=O)O)CC3)nc(C(F)(F)F)n2)cc1` [Compound 262], the pEC50 in assay [2] was over 7.00; in assay [3], 6.00 to 7.00; in assay [4], over 7.00.
With `CN(C)CCN1CCN(c2cc(N3CCC[C@@H](C(=O)NCCc4ccc(C#N)cc4)C3)nc(C(F)(F)F)n2)CC1` [Compound 333, (R)-N-(4-cyanophenethyl)-1-(6-(4-(2-(dimethylamino)ethyl)piperazin-1-yl)-2-(trifluoromethyl)pyrimidin-4-yl)piperidine-3-carboxamide], the pEC50 in assay [2] is over 7.00; in assay [3], 6.00 to 7.00; in assay [4] it was over 7.00.
With `N#CCCN1CCN(c2cc(N3CCC[C@H]3C(=O)NCCc3ccc(C(F)(F)F)cc3)nc(C(F)(F)F)n2)CC1` [Compound 10], the pEC50 in assay [2] was over 7.00; in assay [3], 6.00 to 7.00; in assay [4], over 7.00.
Regarding `N#Cc1ccc(CCNC(=O)[C@@H]2CCCN2c2cc(N3CCC(CO)CC3)cc(C(F)(F)F)n2)cc1` [Compound 38], the pEC50 in assay [2] was over 7.00; in assay [3], 6.00 to 7.00; in assay [4], over 7.00.
With `COCCN1CCN(c2cc(N3CCC[C@@H](C(=O)NCCc4ccc(C(F)(F)F)cc4)C3)nc(C(F)(F)F)n2)CC1` [Compound 328, (R)-1-(6-(4-(2-methoxyethyl)piperazin-1-yl)-2-(trifluoromethyl)pyrimidin-4-yl)-N-(4-(trifluoromethyl)phenethyl)piperidine-3-carboxamide], the results for the pEC50 in assay [2], in assay [3] and in assay [4] were over 7.00, 6.00 to 7.00 and over 7.00, respectively.
As for `N#CCCC1CCN(c2cc(N3CC[C@H]3C(=O)NCCc3ccc(C#N)cc3)nc(C(F)(F)F)n2)CC1` [Compound 230, (S)-1-(6-(4-(2-cyanoethyl)piperidin-1-yl)-2-(trifluoromethyl)pyrimidin-4-yl)-N-(4-cyanophenethyl)azetidine-2-carboxamide], the results for the pEC50 in assay [2], in assay [3] and in assay [4] were over 7.00, 6.00 to 7.00 and over 7.00, respectively.
For the compound `N#Cc1ccc(CCNC(=O)[C@@H]2CCCN2c2cc(N3CCC(CCNS(=O)(=O)CCNC(=O)NCCC(=O)O)CC3)nc(C(F)(F)F)n2)cc1` [Compound 371, (S)-3-(3-(3-((2-(1-(6-(2-((4-cyanophenethyl)carbamoyl)pyrrolidin-1-yl)-2-(trifluoromethyl)pyrimidin-4-yl)piperidin-4-yl)ethyl)amino)-2-sulfonyl)ethylureido)propanoic acid], the pEC50 in assay [2] was over 7.00; in assay [3] it was 6.00 to 7.00; in assay [4] it was over 7.00.
As to `N#Cc1ccc(CCNC(=O)[C@@H]2CCN2c2cc(N3CCC(CCC(=O)O)CC3)nc(C(F)(F)F)n2)cc1` [Compound 227, (S)-3-(1-(6-(2-((4-cyanophenethyl)carbamoyl)azetidin-1-yl)-2-(trifluoromethyl)pyrimidin-4-yl)piperidin-4-yl)propanoic acid], the pEC50 in assay [2] was over 7.00; in assay [3], 6.00 to 7.00; in assay [4] it was over 7.00.

These data come from patent US10654834B2 (Venenum Biodesign, LLC, priority 2016, dated 2020).
